From patent publication US9249128B2 (priority 2010, dated 2016) come the findings set out here.

As a reminder, the pIC50 is the IC50 on a negative log10 scale, so that one unit is a factor of ten.

pIC50: −log10 of the molar value.

For assay [1], the system named is serine hydrolase activities detected in PC3 cells. As to the kind of experiment: Competitive ABPP-MudPIT of PC3 cells treated in situ. The format is cell-based, human. The settings on record: 1 uM in situ treatment, 4 hr; >30 serine hydrolase activities detected in PC3 cells. How it is done:
(§1) Inhibitors were dissolved in DMSO and diluted into media or buffer prior to cell or proteome treatment, respectively. For in vitro treatment, final DMSO concentration was 4%. For in situ treatments of cells for ABPP, lipid measurements, migration, cell-survival, and invasion assays, 2×10^6 cells were seeded in 6 cm dishes (˜100% confluency) 24 h prior to inhibitor pre-treatment (in DMSO at 0.1% final concentration) in serum-free media (3 mL) for the designated time before harvesting cells for ABPP or lipid measurements or before the initiation of migration, cell-survival, and invasion assays.
Competitive ABPP-MudPIT experiments were performed as previously described (Nomura et al., 2010). Briefly, 1 mg of proteome was labeled with 5 μM FP-biotin, followed by solubilization with 1% Triton X-100, denaturation by SDS and heating, avidin precipitation of labeled proteins, and on-bead tryptic digest. Tryptic peptides were then loaded on to a biphasic (strong cation exchange/reverse phase) capillary column and analyzed by two-dimensional liquid chromatography (2D-LC) separation in combination with tandem mass spectrometry using an Agilent 1100 LC system coupled with a ThermoFisher LTQ linear ion trap mass spectrometer. Spectral counts are reported as the average of three samples with the standard error of the mean (SEM).

Another assay has as its system LNCaP cells. As to the kind of experiment: Cell survival assay in LNCaP cells. The assay is classed as cell-based, human. The settings on record: 1 μM, 48 h in situ treatment; cells express low levels of KIAA1363. On the procedure:
as §1
Cell migration, cell survival, and invasion studies were performed as previously described (Nomura et al., 2010). Briefly, migration assays were performed in Transwell chambers (Corning) with 8 μm pore-sized membranes coated with 10 μg/mL collagen at 37° C. for LNCaP (24 h), PC3 (4 h) and DU145 cells (24 h), respectively. Cell survival assays were performed using the Cell Proliferation Reagent WST-1 (Roche) Invasion assays were conducted using the BD Matrigel Invasion Chambers per the manufacturer's protocol. Inhibitors were preincubated for the stated duration before seeding cells into migration, cell-survival, or invasion chambers. Prior to seeding the cells in these chambers, cells were serum-starved for 4 h. Inhibitors were also present during the migration, cell-survival, and invasion assays.

In assay [2] the target is T1, KIAA1363 (Homo sapiens, UniProt Q6PIU2).
T1 sequence (Q6PIU2 1-408): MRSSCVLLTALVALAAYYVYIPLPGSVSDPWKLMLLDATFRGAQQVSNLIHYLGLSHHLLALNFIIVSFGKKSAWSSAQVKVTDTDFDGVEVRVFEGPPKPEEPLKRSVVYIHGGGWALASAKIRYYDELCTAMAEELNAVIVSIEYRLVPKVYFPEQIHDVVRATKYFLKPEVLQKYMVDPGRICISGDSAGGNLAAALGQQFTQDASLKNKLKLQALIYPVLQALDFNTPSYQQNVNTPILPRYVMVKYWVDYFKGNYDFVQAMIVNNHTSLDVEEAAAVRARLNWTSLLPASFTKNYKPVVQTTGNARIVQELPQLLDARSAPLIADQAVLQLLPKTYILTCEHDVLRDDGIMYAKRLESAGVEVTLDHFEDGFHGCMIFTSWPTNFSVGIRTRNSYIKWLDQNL
The assay can be described thus: Gel-based competitive ABPP in PC3 cell proteomes, in vitro treatment. The arrangement: PC3 cancer cells, which have high endogenous KIAA1363 levels; endogenous in cells; host or cells: PC3. The assay is classed as biochemical. On the procedure:
as §1
(§2) For ABPP experiments, cell lysate and tissue proteomes were treated with 1 μM FP-rhodamine for 30 min at room temperature (50 μL total reaction volume) as described previously (Nomura et al., 2010). Reactions were quenched with one volume of standard 4×SDS/PAGE loading buffer (reducing), separated by SDS/PAGE (10% acrylamide), and visualized in-gel with a Hitachi FMBio IIe flatbed fluorescence scanner (MiraiBio). Inhibitors were preincubated prior (30 min or 4 h at 37° C. in vitro or in situ, respectively) to the addition of FP-rhodamine.

The target of assay [3] is T1, KIAA1363. The assay can be described thus: Gel-based competitive ABPP of living PC3 cells, in situ treatment. The settings on record: for pIC50: in situ treatment. The format is cell-based. The arrangement: PC3 cancer cells, which have high endogenous KIAA1363 levels; endogenous in cells; host or cells: PC3. On the procedure: as §1, §2
JW576 was dissolved in DMSO and diluted into media or buffer prior to cell or proteome treatment, respectively. For in vitro treatment, final DMSO concentration was 4%. For in situ treatments of cells for ABPP, 2×10^6 cells were seeded in 6 cm dishes (100% confluency) 24 hr prior to JW576 pretreatment with or without JW480 (in DMSO at 0.1% final concentration) in serum-free media (3 ml) for the designated time before harvesting cells for ABPP.
For ABPP experiments, cell lysate and tissue proteomes were treated with 1 μM FP-rhodamine for 30 min at room temperature ([…]). Reactions were quenched with one volume of standard 4×SDS/PAGE loading buffer (reducing), separated by SDS/PAGE (10% acrylamide), and visualized in-gel with a Hitachi FMBio IIe flatbed fluorescence scanner (MiraiBio). For experiments involving a preincubation with JW576 in the presence or absence of the non-fluorescent competitor JW480, the reactions were prepared without FP-rhodamine. JW576 were added at the indicated concentration and incubated for the indicated time at 37° C. FP-rhodamine was then added and the reaction was carried out exactly as described above.

The target of a further assay is T2, FAAH (Mus musculus, UniProt O08914).
T2 construct: from tissue; host or cells: mouse brain
T2 sequence (O08914 1-579): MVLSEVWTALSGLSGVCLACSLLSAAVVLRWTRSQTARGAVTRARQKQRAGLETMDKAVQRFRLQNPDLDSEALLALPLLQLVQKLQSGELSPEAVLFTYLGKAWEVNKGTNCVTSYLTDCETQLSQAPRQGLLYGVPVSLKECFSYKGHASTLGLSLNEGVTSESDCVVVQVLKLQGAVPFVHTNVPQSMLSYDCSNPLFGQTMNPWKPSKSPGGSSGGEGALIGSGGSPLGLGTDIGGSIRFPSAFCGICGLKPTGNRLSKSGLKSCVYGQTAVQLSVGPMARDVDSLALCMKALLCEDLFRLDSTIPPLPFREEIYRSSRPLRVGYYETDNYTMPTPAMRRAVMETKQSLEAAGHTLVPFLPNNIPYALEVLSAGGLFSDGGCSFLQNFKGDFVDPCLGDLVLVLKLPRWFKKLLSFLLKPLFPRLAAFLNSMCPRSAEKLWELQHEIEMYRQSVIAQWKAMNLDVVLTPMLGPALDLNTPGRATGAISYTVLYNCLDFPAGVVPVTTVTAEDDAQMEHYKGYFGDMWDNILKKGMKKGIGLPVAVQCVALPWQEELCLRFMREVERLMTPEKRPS
As to the kind of experiment: Competitive ABPP of FAAH in mouse brain proteome. The format is biochemical. The settings on record: gel-based competitive ABPP, 10 μM inhibitor. On the procedure: as §2

Take `CC(C)c1ccccc1OC(=O)NCCc1ccc2ccccc2c1` [JW480, 2-isopropylphenyl (2-(naphthalen-2-yl)ethyl)carbamate]: in assay [1], the “Off-target activity across serine hydrolases (ABPP-MudPIT)” value was “no off-target activity”. In the assay on LNCaP cells, the “Survival of LNCaP cells” value is reported as “does not affect”. Further, the “Selectivity for KIAA1363 by gel-based competitive ABPP” value on KIAA1363 [2] (PC3 cells, also DU145 and LNCaP cells) is “excellent selectivity”. For the same compound, the pIC50 is 7.92 on KIAA1363 [2] (in vitro treatment); 8.22 on KIAA1363 [3] (PC3 cells, read-out: IC50 for KIAA1363, in situ (FIG. 3B)); 7.92 to 8.22 at KIAA1363 [3] (presence or absence of 10% fetal calf serum, read-out: IC50 for KIAA1363 in living PC3 cells). Also, at KIAA1363 [3] (JW480 1 μM, PC3 cells), the “Duration of in situ inhibition of KIAA1363” value is “at least 48 hr”.

Consider `COc1ccc(CNC(=O)Oc2cccc3c2OC(C)(C)C3)cc1` [JW148, 2,2-dimethyl-2,3-dihydrobenzofuran-7-yl 4-methoxybenzylcarbamate], for which the “Inhibition of FAAH / selectivity versus FAAH” value at FAAH is given as “good selectivity”.
